The values that follow are results of earlier work, collected in the CATMoS acute toxicity set (Mansouri et al. 2021).

“And” between values parts separate entries of the source, which are not always exact repeats. Identical values can stand only once.

The data set in a line: rat acute oral toxicity. To be noted: in vivo.
Turning to `C=CCNCC=C`, the LD50 is 578 mg/kg.
Turning to `CC1CC2CN(C)CC(C2O)C1N1CCCC1` (configuration not stated), the LD50 was 500 mg/kg.
`CCOP(=O)(OCC)SCS(=O)CC` (configuration not stated): the LD50 was 1 mg/kg.
On to `CN1CSC(=S)N(C)C1`, for which the LD50 was 320 mg/kg.
For `CS(=O)(=O)OCCCN(CCCOS(C)(=O)=O)C1CCCCC1`, the LD50 was 375 mg/kg.
Take `O=NN(O)c1ccccc1`: the median lethal dose (LD50) is 199 mg/kg and 490 mg/kg.
As to `CCCCn1cnnc1`, the LD50 was 50 mg/kg.
Consider `CCSCc1ccccc1OC(=O)NC`, for which the LD50 was 200 mg/kg.
On to `CCOC(C1=NCC(O)CN1)c1ccccc1` (configuration not stated), for which the LD50 was 1750 mg/kg.
Regarding `CCOP(=O)(OCC)C(SCC)(P(=O)(OCC)OCC)P(=O)(OCC)OCC`, the LD50 is 7.25 mg/kg.
In the case of `COC(=O)C1=C(C)NC(C)=C(C(=O)OCCN(C)Cc2ccccc2)C1c1cccc([N+](=O)[O-])c1` (configuration not stated), the LD50 is 184 mg/kg and 320 mg/kg.
With `CCCc1ccc(O)cc1`, the LD50 was 500 mg/kg.
Consider `CC(=O)C(N=Nc1cc(Cl)c(-c2cc(Cl)c(N=NC(C(C)=O)C(=O)Nc3ccc(C)cc3C)cc2Cl)cc1Cl)C(=O)Nc1ccc(C)cc1C` (configuration not stated), for which the LD50 was 2230 mg/kg.
`O=S(=O)(SC(Cl)(Cl)Cl)C(Cl)Cl`: the LD50 is 3620 mg/kg.
On to `CCc1c(C)nc2ccccn2c1=O`, for which the LD50 was 1000 mg/kg.
In the case of `COc1cc2nc(N3CCN(C(=O)OCC4CC4)CC3)nc(N)c2cc1OC`, the LD50 was 1150 mg/kg.
In the case of `Cc1cccc(C(=O)O)c1O`, the LD50 is 445 mg/kg.
On to `C#CCCC#CC#CCCCCO`, for which the LD50 is 250 mg/kg.
Turning to `Cc1cc(C2CCCCC2)n(O)c(=O)c1`, the LD50 is 2350 mg/kg.
As for `COP(=S)(Oc1ccc([N+](=O)[O-])cc1)OC(C)C` (configuration not stated), the LD50 was 5 mg/kg.
For the compound `CC(=O)OCC(C)c1ccccc1` (configuration not stated), the LD50 is 4300 mg/kg.
In the case of `CN1CCN(N=O)CC1`, the LD50 is 100 mg/kg.
Regarding `CCC(=O)O[C@@H]1CC(=O)O[C@H](C)C/C=C/C=C/[C@H](O)[C@H](C)C[C@H](CC=O)[C@H](O[C@@H]2O[C@H](C)[C@@H](O[C@H]3C[C@@](C)(O)[C@@H](OC(=O)CC)[C@H](C)O3)[C@H](N(C)C)[C@H]2O)[C@H]1OC`, the LD50 is 9600 mg/kg.
`NC(=O)N1c2ccccc2C=Cc2ccccc21`: the LD50 is 1960 mg/kg.
Turning to `CC(O)CN(CC(C)O)c1nc(Nc2ccc(C=Cc3ccc(Nc4nc(Nc5cc(S(=O)(=O)O)ccc5S(=O)(=O)O)nc(N(CC(C)O)CC(C)O)n4)cc3S(=O)(=O)O)c(S(=O)(=O)O)c2)nc(Nc2cc(S(=O)(=O)O)ccc2S(=O)(=O)O)n1` (configuration not stated), the LD50 is 12100 mg/kg.
On to `Cc1ccc2ccccc2n1`, for which the LD50 was 1230 mg/kg.
Take `CCOP(=S)(OCC)Oc1cc(C)nc2ccccc12`: the 50% lethal dose (LD50) was 50 mg/kg.
Take `CC1CCCc2ccccc21` (configuration not stated): the LD50 is 6700 mg/kg.
Consider `CC1=Nc2ccc(Cl)cc2S(=O)(=O)N1`, for which the LD50 was 980 mg/kg.
Take `CN1CCC(OC(c2ccccc2)c2ccccc2)CC1`: the LD50 was 698 mg/kg.
As for `CC(C)c1cccc(OC(=O)N(C)C)c1`, the LD50 was 160 mg/kg.
Regarding `CC(C)(O)C(C)(O)c1ccc(Cl)cc1` (configuration not stated), the LD50 is 832 mg/kg.
For `COc1cc(Cc2cnc(N)nc2N)cc(OC)c1Br`, the LD50 is 2510 mg/kg.
Consider `O=C(O)c1cc(S(=O)(=O)O)ccc1O`, for which the LD50 is 1850 mg/kg.
As to `O=C(Cn1ccnc1)c1ccc2ccccc2c1`, the LD50 was 504 mg/kg.
On to `CN(C)C=Nc1c(I)cc(I)c(CCC(=O)O)c1I`, for which the LD50 was 2500 mg/kg and 1030 mg/kg.
Regarding `N#Cc1ccc2c(c1)N(CCCN1CCC(O)CC1)c1ccccc1S2`, the LD50 was 395 mg/kg.
As for `CCCCOC(C1=NCCCN1)c1ccccc1` (configuration not stated), the LD50 is 310 mg/kg.
As to `CCOC(C(=O)O)(c1ccccc1)c1ccccc1`, the LD50 was 1000 mg/kg.
`CC[C@@H](C(=O)O)[C@@H]1O[C@@H]([C@@H](C)[C@H](O)[C@H](C)C(=O)[C@H](CC)[C@H]2O[C@]3(C=C[C@@H](O)[C@]4(CC[C@@](C)([C@H]5CC[C@](O)(CC)[C@H](C)O5)O4)O3)[C@H](C)C[C@@H]2C)[C@@H](C)C[C@@H]1C`: the LD50 is 18.5 mg/kg.
As for `CCOC(=O)COc1ccc2c(C)c(CCN(CC)CC)c(=O)oc2c1`, the LD50 was 8000 mg/kg.
With `Cc1ccc(NN)cc1`, the LD50 was 262 mg/kg.
With `CN1CC[C@]23CCCC[C@H]2[C@H]1Cc1ccc(O)cc13`, the LD50 is 150 mg/kg.
Turning to `CC(=O)OCc1ccc2c(c1)OCO2`, the LD50 is 2100 mg/kg.
Consider `COc1cc2[nH]c(C)c(CCN3CCN(c4ccccc4)CC3)c2cc1OC`, for which the LD50 was 1000 mg/kg.
Turning to `Nc1ccc(OP(=O)(Oc2ccc(N)cc2)Oc2ccc(N)cc2)cc1`, the LD50 is 138 mg/kg.
Regarding `CCN(CC)c1cccc(OC(=O)NC)c1`, the LD50 was 91 mg/kg.
As to `CC1(S(=O)(=O)O)CC(=O)c2ccccc2C1=O` (configuration not stated), the median lethal dose (LD50) is 4510 mg/kg.
On to `NNc1ccccc1`, for which the LD50 was 188 mg/kg.
As for `CC(C)C1C=C2CC[C@H]3[C@](C)(CO)CCC[C@]3(C)[C@H]2CC1` (some centres not stated), the LD50 was 70000 mg/kg.
In the case of `CCC1CCC(C)NC1` (configuration not stated), the LD50 is 540 mg/kg.
As to `CC(=O)OC(C)(C)Cc1ccccc1`, the LD50 is 3300 mg/kg.
In the case of `ClC=Cc1ccccc1`, the LD50 was 5200 mg/kg.
As to `COc1cc2c(cc1OC)C(CCc1ccc(Cl)cc1)N(C)CC2` (configuration not stated), the 50% lethal dose (LD50) was 400 mg/kg.
With `CCN1CC(CC(N)=O)CC2c3cccc4[nH]cc(c34)CC21` (configuration not stated), the LD50 is 38.5 mg/kg.
Regarding `CCC1(CCl)COC1`, the LD50 is 570 mg/kg.
For the compound `CCN[C@H]1C[C@H](C)S(=O)(=O)c2sc(S(N)(=O)=O)cc21`, the LD50 was 1930 mg/kg.
